Earlier results on three molecules are cited in patent publication US20210228408A1, “Glaucoma Treatment Via Intracameral Ocular Implants” (Allergan, Inc., priority 2015, published 2021).

pEC50: −log10 of the molar value.

The target of data set [1] is prostaglandin F (FP) receptor (Homo sapiens, UniProt P43088). The conditions noted are these: read-out: Most potent measured EC50 on FP receptor.
The target in data set [2] is Cloned Human Ciliary Body FP Prostaglandin Receptor (Homo sapiens, UniProt P43088). The settings on record: read-out: Functional Potency, EC50.
Chain of Cloned Human Ciliary Body FP Prostaglandin Receptor (P43088 whole entry): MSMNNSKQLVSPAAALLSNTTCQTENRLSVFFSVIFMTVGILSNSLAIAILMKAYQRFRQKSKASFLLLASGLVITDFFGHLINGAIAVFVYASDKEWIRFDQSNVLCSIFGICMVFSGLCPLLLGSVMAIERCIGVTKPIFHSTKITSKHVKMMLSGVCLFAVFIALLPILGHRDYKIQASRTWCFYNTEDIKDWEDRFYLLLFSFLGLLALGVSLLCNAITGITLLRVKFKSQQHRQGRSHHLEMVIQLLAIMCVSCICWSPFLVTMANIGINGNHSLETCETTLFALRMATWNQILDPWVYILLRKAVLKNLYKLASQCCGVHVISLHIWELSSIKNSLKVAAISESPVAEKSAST

Chain of prostaglandin F (FP) receptor (P43088 whole entry): as above

Take `O=C(O)CCC/C=C\C[C@@H]1[C@@H](/C=C/[C@@H](O)COc2cccc(C(F)(F)F)c2)[C@H](O)C[C@@H]1O` [Travoprost acid]: the pEC50 in data set [1] is 8.85; in data set [2] it was 8.49.

`O=C(O)CCC/C=C\C[C@@H]1[C@@H](/C=C/[C@@H](O)CCc2ccccc2)[C@H](O)C[C@@H]1O` [Bimatoprost acid]: the pEC50 in data set [1] is around 8.48; in data set [2] it was 8.24.

`CC(C)OC(=O)CCC/C=C\C[C@@H]1[C@@H](/C=C/[C@@H](O)COc2cccc(C(F)(F)F)c2)[C@H](O)C[C@@H]1O` [Travoprost, propan-2-yl 7-[3,5-dihydroxy-2-[3-hydroxy-4-[3-(trifluoromethyl)phenoxy]-but-1-enyl]-cyclopentyl]hept-5-enoate]: the pEC50 in data set [1] is around 8.85.

The term pEC50 denotes the EC50 on a negative log10 scale, so that one unit is a factor of ten.
